Data published in ChEMBL document CHEMBL1147986, “Minimum structure requirement of immunomodulatory glycolipids for predominant Th2 cytokine induction and the discovery of non-linear phytosphingosine analogs” (2007).

Experiments:
[1] = Induction of IFN gamma secretion in C57BL/6 mouse spleen cells at 100 ng/ml after 72 hrs relative to OCH; assay type: functional
[2] = Induction of IL4 secretion in C57BL/6 mouse spleen cells at 100 ng/ml after 72 hrs relative to OCH; assay type: functional

Row | Compound | Activity [1] [%] | Activity [2] [%]
1 | CCCCCCCCCCCCCCCCCCCCCCCC(=O)N[C@@H](CO[C@H]1O[C@H](CO)[C@H](O)[C@H](O)[C@H]1O)[C@H](O)[C@H](O)CCCCC | 100 | 100
2 | CCCCCCCCCCCCCCCCCCCCCCCC(=O)N[C@@H](CO[C@H]1O[C@H](CO)[C@H](O)[C@H](O)[C@H]1O)[C@H](O)[C@H](O)CC | 81 | 102
3 | CCCCCCCCCCCCCCCCCCCCCCCC(=O)N[C@@H](CO[C@H]1O[C@H](CO)[C@H](O)[C@H](O)[C@H]1O)[C@H](O)[C@H](O)CCC | 96 | 105
4 | CCCCCCCCCCCCCCCCCCCCCCCCCCCC(=O)N[C@@H](CO[C@H]1O[C@H](CO)[C@H](O)[C@H](O)[C@H]1O)[C@H](O)[C@H](O)CCCCC | 761 | 178
5 | CCCCCCCCCCCCCCCCCCCCCCCC(=O)N[C@@H](CO[C@H]1O[C@H](CCl)[C@H](O)[C@H](O)[C@H]1O)[C@H](O)[C@H](O)CC1CCCC1 | 74 | 98
6 | CCCCCCCCCCCCCCCCCCCCCCCC(=O)N[C@@H](CO[C@H]1O[C@H](CCl)[C@H](O)[C@H](O)[C@H]1O)[C@H](O)[C@H](O)Cc1ccccc1 | 284 | 211
7 | CCCCCCCCCCCCCCCCCCCC(=O)N[C@@H](CO[C@H]1O[C@H](CO)[C@H](O)[C@H](O)[C@H]1O)[C@H](O)[C@H](O)CCCCC | 9 | 6
8 | CCCCCCCCCCCCCCCCCCCCCCCC(=O)N[C@@H](CO[C@H]1O[C@H](CO)[C@H](O)[C@H](O)[C@H]1O)[C@H](O)[C@H](O)CCCC | 112 | 115
9 | CCCCCCCCCCCCCCCCCCCCCCCCCC(=O)N[C@@H](CO[C@H]1O[C@H](CO)[C@H](O)[C@H](O)[C@H]1O)[C@H](O)[C@H](O)CCCCC | 504 | 129
10 | CCCCCCCCCCCCCCCCCCCCCCC(=O)N[C@@H](CO[C@H]1O[C@H](CO)[C@H](O)[C@H](O)[C@H]1O)[C@H](O)[C@H](O)CCCCC | 93 | 103
11 | CCCCCCCCCCCCCCCCCCCCCCCCC(=O)N[C@@H](CO[C@H]1O[C@H](CO)[C@H](O)[C@H](O)[C@H]1O)[C@H](O)[C@@H](O)CCCCC | 103 | 154
12 | CCCCCCCCCCCCCCCCCCCCCC(=O)N[C@@H](CO[C@H]1O[C@H](CO)[C@H](O)[C@H](O)[C@H]1O)[C@H](O)[C@H](O)CCCCC | 46 | 51
13 | CCCCCCCCCCCCCCCCCCCCCCCCCC(=O)N[C@@H](CO[C@H]1O[C@H](CO)[C@H](O)[C@H](O)[C@H]1O)[C@H](O)[C@H](O)CCCCCCCCCCCCCC [RGI-7000] | 569 | 128
